According to patent publication US20250230193A1, “CYCLIC COMPOUND HAVING SELECTIVE KRAS INHIBITORY EFFECT ON HRAS AND NRAS” (CHUGAI SEIYAKU KABUSHIKI KAISHA, priority 2022, published 2025):
Where a SMILES comes first, the peptide text is derived from it. Bridges are numbered along the chain shown (N, C = ends). [ ]: non-standard residue; d: D form. The star is where a group is joined. hPhe(3-Cl-4-CF3) = N[C@@H](CCc1ccc(C(F)(F)F)c(Cl)c1)C(=O)O; NPrPhe(4-CF3) = CCCN[C@@H](Cc1ccc(C(F)(F)F)cc1)C(=O)O; NMeGly(cPent) = CN[C@H](C(=O)O)C1CCCC1; NMeD = CN[C@@H](CC(=O)O)C(=O)O; NMeL = CN[C@@H](CC(C)C)C(=O)O; Morpholide = C1CN(*)CCO1; NMeA = CN[C@@H](C)C(=O)O; Ac5c = NC1(C(=O)O)CCCC1; Aze = O=C(O)[C@@H]1CCN1; Sar = CNCC(=O)O

Legend:
[1] = target: GDP-bound HRAS wild-type protein (Homo sapiens, UniProt P01112); assay: Binding to HRAS by surface plasmon resonance (SPR), Single Cycle Kinetics; conditions: SPR
Sequence of GDP-bound HRAS wild-type protein (P01112 whole entry): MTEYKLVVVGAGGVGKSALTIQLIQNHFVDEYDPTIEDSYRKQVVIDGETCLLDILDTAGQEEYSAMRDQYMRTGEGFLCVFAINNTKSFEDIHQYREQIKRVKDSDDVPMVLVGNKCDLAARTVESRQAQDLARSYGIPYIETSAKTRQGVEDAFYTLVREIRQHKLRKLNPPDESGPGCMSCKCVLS

[2] = target: GDP-bound NRAS wild-type protein (Homo sapiens, UniProt P01111); assay: Binding to NRAS by surface plasmon resonance (SPR), Single Cycle Kinetics; conditions: SPR
Sequence of GDP-bound NRAS wild-type protein (P01111 whole entry): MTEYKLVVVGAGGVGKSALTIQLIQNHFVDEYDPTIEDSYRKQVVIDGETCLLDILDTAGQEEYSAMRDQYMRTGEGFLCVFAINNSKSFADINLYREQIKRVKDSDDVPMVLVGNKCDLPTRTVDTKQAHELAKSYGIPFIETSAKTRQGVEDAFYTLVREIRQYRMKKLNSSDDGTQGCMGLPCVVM

[3] = GDP-bound HRAS wild-type vs GDP-bound KRAS wild-type
[4] = GDP-bound NRAS wild-type vs GDP-bound KRAS wild-type

Compound: CCCN1C(=O)CN(C)C(=O)CN(C)C(=O)[C@H]([C@@H](C)CC)NC(=O)[C@H](CC(C)C)N(C)C(=O)C[C@@H](C(=O)N2CCOCC2)NC(=O)[C@H](C2CCCC2)N(C)C(=O)C2(CCCC2)NC(=O)[C@@H]2CCCN2C(=O)[C@H](CCc2ccc(C(F)(F)F)c(Cl)c2)NC(=O)CN(C)C(=O)[C@@H]1Cc1ccc(C(F)(F)F)cc1 [PP0146] ([NMeL]I[Sar][Sar][NPrPhe(4-CF3)][Sar][hPhe(3-Cl-4-CF3)]P[Ac5c][NMeGly(cPent)]D-Morpholide; lactam N-11)
- HRAS/KRAS (ratio of KD for GDP-bound HRAS wild-type to KD for KRAS) ([1]; KD ratio HRAS/KRAS): B (a compound having 3 or more and less than 10 is denoted as B)
- NRAS/KRAS (ratio of KD for GDP-bound NRAS wild-type to KD for KRAS) ([2]; KD ratio NRAS/KRAS): B (a compound having 3 or more and less than 10 is denoted as B)

Compound: CCCN1C(=O)[C@@H]2CCN2C(=O)[C@H](C)N(C)C(=O)[C@H]([C@@H](C)CC)NC(=O)[C@H](CC(C)C)N(C)C(=O)C[C@@H](C(=O)N2CCOCC2)N(C)C(=O)[C@H](C2CCCC2)N(C)C(=O)C2(CCCC2)NC(=O)[C@@H]2CCN2C(=O)[C@H](CCc2ccc(C(F)(F)F)c(Cl)c2)NC(=O)CN(C)C(=O)[C@@H]1Cc1ccc(C(F)(F)F)cc1 [PP0281] ([NMeL]I[NMeA][Aze][NPrPhe(4-CF3)][Sar][hPhe(3-Cl-4-CF3)][Aze][Ac5c][NMeGly(cPent)][NMeD]-Morpholide; lactam N-11)
- HRAS/KRAS (ratio of KD for GDP-bound HRAS wild-type to KD for KRAS) ([1]; KD ratio HRAS/KRAS): C (A compound having a KD ratio of 0.1 or more and less than 3 is denoted as C)
- NRAS/KRAS (ratio of KD for GDP-bound NRAS wild-type to KD for KRAS) ([2]; KD ratio NRAS/KRAS): C (A compound having a KD ratio of 0.1 or more and less than 3 is denoted as C)

Compound: CCC[C@H]1C(=O)N[C@@H]([C@@H](C)CC)C(=O)N(C2CC2)CC(=O)N(C)[C@H]2C/C=C\CCN(C2=O)[C@@H](Cc2ccc(C)cc2)C(=O)N(C)CC(=O)N[C@@H](CCc2ccc(C(F)(F)F)c(OC)c2)C(=O)N2C[C@@H](C)C[C@H]2C(=O)N(C)C2(CCC2)C(=O)N(C)[C@@H](C2CCCC2)C(=O)N(C)[C@H](C(=O)N(C)C)CC(=O)N1C [PP2366]
- HRAS/KRAS (ratio of KD value with respect to HRAS to KD value with respect to KRAS) [1, 3]: A (a compound having 10 or more and less than 20 is denoted as A)
- NRAS/KRAS (ratio of KD value with respect to NRAS to KD value with respect to KRAS) [2, 4]: A (a compound having 10 or more and less than 20 is denoted as A)

Compound: CCCN1C(=O)[C@@H]2CCN2C(=O)[C@@H]2CCN2C(=O)[C@H]([C@@H](C)CC)NC(=O)[C@H](CC(C)C)N(C)C(=O)C[C@@H](C(=O)N2CCOCC2)N(C)C(=O)[C@H](C2CCCC2)N(C)C(=O)C2(CCCC2)NC(=O)[C@@H]2CCCN2C(=O)[C@H](CCc2ccc(C(F)(F)F)c(Cl)c2)NC(=O)CN(C)C(=O)[C@@H]1Cc1ccc(C(F)(F)F)cc1 [PP0168] ([NMeL]I[Aze][Aze][NPrPhe(4-CF3)][Sar][hPhe(3-Cl-4-CF3)]P[Ac5c][NMeGly(cPent)][NMeD]-Morpholide; lactam N-11)
- HRAS/KRAS (ratio of KD for GDP-bound HRAS wild-type to KD for KRAS) ([1]; KD ratio HRAS/KRAS): B (a compound having 3 or more and less than 10 is denoted as B)
- NRAS/KRAS (ratio of KD for GDP-bound NRAS wild-type to KD for KRAS) ([2]; KD ratio NRAS/KRAS): C (A compound having a KD ratio of 0.1 or more and less than 3 is denoted as C)

Compound: CCCC[C@H]1C(=O)N[C@@H]([C@@H](C)CC)C(=O)N(C)CC(=O)N(C)[C@H]2C/C=C\CCN(C2=O)[C@@H](Cc2ccc(C(F)(F)F)cc2)C(=O)N(C)CC(=O)N[C@@H](CCc2cc(F)c(C(F)(F)F)c(F)c2)C(=O)N2CC(F)(F)C[C@H]2C(=O)NC2(CC(C)(C)C2)C(=O)N(C)[C@@H](C2CCCC2)C(=O)N(C)[C@H](C(=O)N(C)C)CC(=O)N1C [PP1714]
- HRAS/KRAS (ratio of KD value for HRAS to KD value for KRAS) [1, 3]: A (a compound having 10 or more and less than 20 is denoted as A)
- NRAS/KRAS (ratio of KD value for NRAS to KD value for KRAS) [2, 4]: A (a compound having 10 or more and less than 20 is denoted as A)

Compound: CC[C@H](C)[C@@H]1NC(=O)[C@H](CC(C)C)N(C)C(=O)C[C@@H](C(=O)N2CCOCC2)N(C)C(=O)[C@H](C2CCCC2)N(C)C(=O)C2(CCCC2)NC(=O)[C@@H]2CCCN2C(=O)[C@H](CCc2ccc(C(F)(F)F)c(Cl)c2)NC(=O)CN(C)C(=O)[C@H](Cc2ccc(C)cc2)N2CC/C=C\C[C@@H](C2=O)N(C)C(=O)CN(C)C1=O [PP0461]
- HRAS/KRAS (ratio of KD value with respect to GDP-bound HRAS wild-type protein to KD value with respect to KRAS) ([1]; KD ratio HRAS/KRAS): A (a compound having 10 or more and less than 20 is denoted as A)
- NRAS/KRAS (ratio of KD value with respect to GDP-bound NRAS wild-type protein to KD value with respect to KRAS) ([2]; KD ratio NRAS/KRAS): A (a compound having 10 or more and less than 20 is denoted as A)

Compound: CCCN(C)C(=O)[C@@H]1CC(=O)N(C)[C@@H](CC(F)F)C(=O)N[C@@H]([C@@H](C)CC)C(=O)N(C)CC(=O)N(C)[C@H]2C/C=C\CCN(C2=O)[C@@H](Cc2ccc(C(F)(F)F)cc2)C(=O)N(C)CC(=O)N[C@@H](CCc2ccc(C(F)(F)F)c(OC)c2)C(=O)N2C[C@@H](C)C[C@H]2C(=O)NC2(CCC2)C(=O)N(C)[C@@H](C2CCCC2)C(=O)N1C [PP2024]
- HRAS/KRAS (ratio of KD value for HRAS to KD value for KRAS) [1, 3]: B (a compound having 3 or more and less than 10 is denoted as B)
- NRAS/KRAS (ratio of KD value for NRAS to KD value for KRAS) [2, 4]: A (a compound having 10 or more and less than 20 is denoted as A)
